The subject of this assay is L1210 leukemia ip in BDF1 mice, survival T/C. The assay is described as follows: NCI In Vivo Anticancer Drug Screen. Data for tumor model L1210 Leukemia (intraperitoneal) in B6D2F1 (BDF1) mice. Particulars: endpoint: mean survival time, higher = longer survival. In short, it runs like this:
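In this screen, tumor-bearing mice given compound are compared to those given vehicle, and their survival values are reported as a treated-to-control quotient.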

The mark [1] stands for this setting: dose: 100.0 mg/kg/injection, schedule: Q04DX003 (ip), vehicle: saline with Tween-80.
Setting [2] is: dose: 200.0 mg/kg/injection, schedule: Q04DX003 (ip), vehicle: saline with Tween-80.
Setting [3] is: dose: 400.0 mg/kg/injection, schedule: Q04DX003 (ip), vehicle: saline with Tween-80.
The mark [4] stands for this setting: dose: 100.0 mg/kg/injection, schedule: Q01DX009 (ip), vehicle: Klucel (hydroxypropylcellulose) (HPC).
Setting [5] is: dose: 100.0 mg/kg/injection, schedule: Q04DX003 (ip), vehicle: Klucel (hydroxypropylcellulose) (HPC).
Where [6] appears, read: dose: 200.0 mg/kg/injection, schedule: Q01DX009 (ip), vehicle: Klucel (hydroxypropylcellulose) (HPC).
Setting [7] is: dose: 200.0 mg/kg/injection, schedule: Q04DX003 (ip), vehicle: Klucel (hydroxypropylcellulose) (HPC).
[8] abbreviates: dose: 400.0 mg/kg/injection, schedule: Q01DX009 (ip), vehicle: Klucel (hydroxypropylcellulose) (HPC).
Setting [9] is: dose: 400.0 mg/kg/injection, schedule: Q04DX003 (ip), vehicle: Klucel (hydroxypropylcellulose) (HPC).
The mark [10] stands for this setting: dose: 50.0 mg/kg/injection, schedule: Q01DX001 (ip), vehicle: carboxymethylcellulose (CMC).
Setting [11] is: dose: 100.0 mg/kg/injection, schedule: Q01DX001 (ip), vehicle: saline with Tween-80.
[12] abbreviates: dose: 200.0 mg/kg/injection, schedule: Q01DX001 (ip), vehicle: saline with Tween-80.
Where [13] appears, read: dose: 400.0 mg/kg/injection, schedule: Q01DX001 (ip), vehicle: saline with Tween-80.

The source of these data is PubChem BioAssay AID248 (DTP/NCI, 2004).

Structures are written as SMILES. “And” between values parts separate entries of the source, which are not always exact repeats. Equal entries are not always repeated. Inconclusive results and toxic doses are left out.

In the case of `Cc1ccc(CC2CC(=O)c3ccccc3C2=O)cc1` (stereo unspecified), the T/C is 91 % of control under setting [1], 91 % of control under setting [2] and 89 % of control under setting [3].

For `CC(=O)CN1C(=O)c2ccccc2C1=O`, the T/C under setting [4] was 102 % of control; the T/C under setting [5] is 111 % of control; the T/C under setting [6] was 108 % of control; the T/C under setting [7] was 104 % of control; the T/C under setting [8] is 105 % of control; the T/C under setting [9] was 98 % of control.

Regarding `CN(CC#CCOc1ccc(Cl)cc1)c1ccccc1`, the T/C was 96 % of control (dose: 12.5 mg/kg/injection, schedule: Q01DX001 (ip), vehicle: carboxymethylcellulose (CMC)); 97 % of control and 90 % of control (dose: 12.5 mg/kg/injection, schedule: Q01DX009 (ip), vehicle: carboxymethylcellulose (CMC)); 93 % of control and 106 % of control (dose: 12.5 mg/kg/injection, schedule: Q04DX002 (ip), vehicle: carboxymethylcellulose (CMC)); 103 % of control (dose: 12.5 mg/kg/injection, schedule: Q04DX003 (ip), vehicle: carboxymethylcellulose (CMC)); 96 % of control (dose: 25.0 mg/kg/injection, schedule: Q01DX001 (ip), vehicle: carboxymethylcellulose (CMC)); 93 % of control (dose: 25.0 mg/kg/injection, schedule: Q01DX009 (ip), vehicle: carboxymethylcellulose (CMC)). In addition, the T/C was 93 % of control and 110 % of control (dose: 25.0 mg/kg/injection, schedule: Q04DX002 (ip), vehicle: carboxymethylcellulose (CMC)); 102 % of control (dose: 25.0 mg/kg/injection, schedule: Q04DX003 (ip), vehicle: carboxymethylcellulose (CMC)); 96 % of control under setting [10]; 93 % of control and 90 % of control (dose: 50.0 mg/kg/injection, schedule: Q01DX009 (ip), vehicle: carboxymethylcellulose (CMC)); 92 % of control and 94 % of control (dose: 50.0 mg/kg/injection, schedule: Q04DX002 (ip), vehicle: carboxymethylcellulose (CMC)); 97 % of control (dose: 50.0 mg/kg/injection, schedule: Q04DX003 (ip), vehicle: carboxymethylcellulose (CMC)). Also, the T/C reads like this: (dose: 100.0 mg/kg/injection, schedule: Q04DX002 (ip), vehicle: carboxymethylcellulose (CMC)) 95 % of control; (dose: 200.0 mg/kg/injection, schedule: Q04DX002 (ip), vehicle: carboxymethylcellulose (CMC)) 88 % of control; (dose: 400.0 mg/kg/injection, schedule: Q04DX002 (ip), vehicle: carboxymethylcellulose (CMC)) 88 % of control.

Regarding `Cc1c([N+](=O)[O-])cc(I)cc1[N+](=O)[O-]`, the T/C reads like this: under setting [1], 106 % of control; under setting [2], 108 % of control; under setting [3], 103 % of control.

Regarding `COC1CC(O[C@H]2CC[C@@]3(C)[C@H](CC[C@@H]4[C@@H]3CC[C@]3(C)[C@@H](C5=CC(=O)OC5)[C@@H](OC(C)=O)C[C@]43O)C2)OC(C)C1O` (stereo partly specified), the T/C (dose: 5.0 mg/kg/injection, schedule: Q01DX001 (ip), vehicle: saline) is 94 % of control; the T/C (dose: 10.0 mg/kg/injection, schedule: Q01DX001 (ip), vehicle: saline) was 108 % of control; the T/C (dose: 20.0 mg/kg/injection, schedule: Q01DX001 (ip), vehicle: saline) is 100 % of control; the T/C (dose: 40.0 mg/kg/injection, schedule: Q01DX001 (ip), vehicle: saline) is 103 % of control; the T/C under setting [10] was 98 % of control; the T/C (dose: 80.0 mg/kg/injection, schedule: Q01DX001 (ip), vehicle: saline) was 114 % of control. Also, the T/C (dose: 100.0 mg/kg/injection, schedule: Q01DX001 (ip), vehicle: carboxymethylcellulose (CMC)) is 104 % of control.

Turning to `Cc1cc(=O)[nH]c2c1CCCC2`, the T/C runs as follows: under setting [1], 92 % of control; under setting [2], 97 % of control; under setting [3], 101 % of control.

For `CC(=O)C1CC2C=CCC(C2)C1` (stereo unspecified), the T/C is, setting by setting: under setting [11], 95 % of control; under setting [12], 90 % of control; under setting [13], 96 % of control.

As for `Cc1ccc([N+](=O)[O-])c(C)c1`, the T/C under setting [4] is 92 % of control; the T/C under setting [5] was 105 % of control; the T/C under setting [6] was 96 % of control; the T/C under setting [7] is 104 % of control; the T/C under setting [8] is 102 % of control; the T/C under setting [9] is 102 % of control.

In the case of `CCOc1cc(S(N)(=O)=O)ccc1Cl`, the T/C is 89 % of control under setting [11], 93 % of control under setting [12] and 96 % of control under setting [13].

As for `CSC(NC(=O)c1ccc([N+](=O)[O-])cc1)C(N)=O` (stereo unspecified), the T/C reads like this: (dose: 50.0 mg/kg/injection, schedule: Q04DX002 (ip), vehicle: Klucel (hydroxypropylcellulose) (HPC)) 102 % of control; (dose: 100.0 mg/kg/injection, schedule: Q04DX002 (ip), vehicle: Klucel (hydroxypropylcellulose) (HPC)) 106 % of control; (dose: 200.0 mg/kg/injection, schedule: Q04DX002 (ip), vehicle: Klucel (hydroxypropylcellulose) (HPC)) 109 % of control and 113 % of control; (dose: 400.0 mg/kg/injection, schedule: Q04DX002 (ip), vehicle: Klucel (hydroxypropylcellulose) (HPC)) 109 % of control.

As for `O=C1C=CC(=O)N1c1cccc2c(N3C(=O)C=CC3=O)cccc12`, the T/C was 89 % of control (dose: 11.1 mg/kg/injection, schedule: Q01DX Z (ip), vehicle: methylcellulose (MC)); 95 % of control (dose: 16.6 mg/kg/injection, schedule: Q01DX Z (ip), vehicle: methylcellulose (MC)); 104 % of control (dose: 25.0 mg/kg/injection, schedule: Q01DX Z (ip), vehicle: methylcellulose (MC)).

With `COc1cccc2c1C(=O)c1c(O)c3c(c(O)c1C2=O)CC(O)(C(C)=O)CC3OC1CC2NC(=O)OC2C(C)O1` (stereo unspecified), under setting [11], the T/C is 114 % of control.

With `CCOC(=O)CS(=O)c1c([N+](=O)[O-])ncn1C` (stereo unspecified), the T/C is 97 % of control (dose: 6.25 mg/kg/injection, schedule: Q01DX009 (ip), vehicle: saline with Tween-80); 94 % of control (dose: 12.5 mg/kg/injection, schedule: Q01DX009 (ip), vehicle: saline with Tween-80); 103 % of control (dose: 25.0 mg/kg/injection, schedule: Q01DX009 (ip), vehicle: saline with Tween-80).

On to `CSC1OC(C(NC(=O)N(C)N=O)C(C)O)C(O)C(O)C1O` (stereo unspecified), for which the T/C reads like this: (dose: 100.0 mg/kg/injection, schedule: Q04DX003 (ip), vehicle: saline) 105 % of control; (dose: 200.0 mg/kg/injection, schedule: Q04DX003 (ip), vehicle: saline) 118 % of control.

As for `Cc1nc(N)[nH]c(=O)c1NC(=O)CBr`, the T/C was 100 % of control (dose: 50.0 mg/kg/injection, schedule: Q01DX001 (ip), vehicle: Klucel (hydroxypropylcellulose) (HPC)) and 104 % of control (dose: 100.0 mg/kg/injection, schedule: Q01DX001 (ip), vehicle: Klucel (hydroxypropylcellulose) (HPC)).

Turning to `O=C(O)C(F)(F)C(F)(F)C(F)(F)F.O=C(O)C(F)(F)C(F)(F)C(F)(F)F.O=C(O)C(F)(F)C(F)(F)C(F)(F)F.O=C(O)C(F)(F)C(F)(F)C(F)(F)F.[Rh].[Rh]`, the T/C was 94 % of control (dose: 25.0 mg/kg/injection, schedule: Q04DX002 (ip), vehicle: saline with Tween-80); 102 % of control (dose: 50.0 mg/kg/injection, schedule: Q04DX002 (ip), vehicle: saline with Tween-80); 105 % of control (dose: 100.0 mg/kg/injection, schedule: Q04DX002 (ip), vehicle: saline with Tween-80).

For the molecule `O=C(O)CC1NCc2cc3ccccc3nc21` (stereo unspecified), the T/C (dose: 10.0 mg/kg/injection, schedule: Q04DX003 (ip), vehicle: alcohol) was 94 % of control; the T/C (dose: 20.0 mg/kg/injection, schedule: Q04DX003 (ip), vehicle: alcohol) was 99 % of control; the T/C (dose: 40.0 mg/kg/injection, schedule: Q04DX003 (ip), vehicle: alcohol) was 105 % of control; the T/C (dose: 80.0 mg/kg/injection, schedule: Q04DX003 (ip), vehicle: alcohol) was 99 % of control; the T/C (dose: 160.0 mg/kg/injection, schedule: Q04DX003 (ip), vehicle: alcohol) was 97 % of control.

Turning to `CC1(C)OCC(CO)(Nc2nc(N3CC3)nc(N3CC3)n2)CO1`, the T/C runs as follows: (dose: 0.31 mg/kg/injection, schedule: Q01DX009 (ip), vehicle: saline) 105 % of control; (dose: 0.62 mg/kg/injection, schedule: Q01DX009 (ip), vehicle: saline) 111 % of control; (dose: 2.5 mg/kg/injection, schedule: Q01DX009 (ip), vehicle: saline) 152 % of control and 168 % of control; (dose: 7.5 mg/kg/injection, schedule: Q01DX009 (ip), vehicle: saline) 101 % of control.
